Test results taken from US20230121031A1, “MASKED FLUOROGENIC COMPOUNDS AND METHODS OF USING THE SAME” (Rutgers, The State University of New Jersey, priority 2021, published 2023).

What was measured:
RNABabySpinach = test: Fluorescence of H2O2-treated aptamer solutions; format: biochemical; settings: for rise of fluorescence intensity of ligand+RNABabySpinach+H2O2: H2O2 100 μM
Protocol: FIGS. 7A-7C depict H2O2 treatment of the aptamer systems. HBI and PBE-HBI (50 μM), RNA (1 μM RNABabySpinach), HEPES (pH 8, 50 mM), KCl (100 mM), MgCl2 (10 mM), H2O2 (100 μM). FIG. 7A depict the time-dependent change in fluorescence intensity upon H2O2 addition. FIG. 7B depicts normalized RFUs at 0, 5, and 60 min. FIG. 7C depicts RNABabySpinach stability against H2O2. TBE-urea PAGE lanes: 1. Native RNA; 2. [HBI+RNA]; 3. [HBI+RNA+H2O2]; 4. [PBE-HBI+RNA]; 5. [PBE-HBI+RNA+H2O2]. For imaging, the gel was stained with SYBR gold.
Next, the change in fluorescence for H2O2-treated aptamer solutions that contain HBI (positive control) and PBE-HBI (FIGS. 7A and 7B) was monitored. The RFU of PBE-HBI+RNABabySpinach was lower than that of HBI+RNABabySpinach by 14-fold at 0 min (no H2O2 present), validating that masking the phenolic oxygen of HBI inhibits RNA binding. Upon addition of H2O2 (100 μM), RFU of PBE-HBI+RNABabySpinach reached up to 92% of RFU of the control in 60 min. […] Upon H2O2 addition, the solution pH increased from 8.0 to 8.4 while ˜10% growth in fluorescence intensity was measured for the HBI-containing samples. This change is attributed to the pH-dependent increase in the phenolate form of HBI (see FIG. 5), which is known to have a higher extinction coefficient than its phenol form. […] To investigate the backbone stability of RNABabySpinach under these oxidative conditions, PAGE analyses of RNABabySpinach solutions containing HBI (FIG. 7C, lanes 2 and 3) and PBE-HBI (FIG. 7C, lanes 4 and 5) were carried out.
Remarkably, the kinetics of H2O2 detection, which involves conversion of PBE-HBI to HBI, followed by HBI-aptamer binding, is fast. The incubation time to achieve 1/2 RFUmax through this process is 6.8 (±0.5) min. Reliable detection of H2O2 is feasible in ˜1 min as the fluorescence intensity doubles. These findings are encouraging and serve as a standard for comparing the detection kinetics for other probes. […] In certain embodiments, reliable detection of elevated ALP may require longer incubations with the respective ABA system (FIG. 3G), as ALP has a relatively small margin of variation. The rates of biomarker detection can be modulated by substituting the HBI carbon framework of the probes (FIGS. 3A-3G) with electron donating (—OMe, —NMe2) or withdrawing (—F, —CF3) groups.

[1] = system: E. coli competent cells (e.g., BL21-DE3); test: Fluorescence imaging of H2O2 in E. coli expressing aptamer; format: cell-based; settings: for fluorescence in E. coli expressing aptamer: imaging buffer with H2O2 (100 μM)
Source text: FIGS. 8A-8D depict detection of H2O2 in E. coli utilizing PBAB-MFHBI. FIG. 8A provides a schematic showing the detection of H2O2 in E. coli by fluorescence of MFHBI upon cleavage from PBAB-MFHBI. FIGS. 8B-8D provide fluorescence images of E. coli expressing aptamer plasmid which have been administered MFHBI (FIG. 8B), PBA-MFHBI (FIG. 8C), and PBA-MFHBI in the presence of H2O2 (FIG. 8D). Dual channel: MFHBI+RNA (470/550 nm) and FM 4-64FX (510/640 nm). Scale bar: 10 μm.
For histochemical detection of oxidative stress in living cells, the focus is first on E. coli competent cells (e.g., BL21-DE3) (FIGS. 8A-8D). For the imaging of H2O2, BL21-DE3 cells are transformed with plasmid DNA that contains a T7 promoter and RNABabySpinach or a custom triple baby spinach construct, which allows for the expression of three baby spinach RNA aptamers per transcription cycle. These cells are inoculated with isopropyl β-D-1-thiogalactopyranoside (IPTG) to induce RNA transcription. […] The results can guide additional studies with more complex and biologically relevant cell lines, in particular, any primary or established mammalian cells (e.g., HEK293, HeLa, and HUVEC, inter alia). Detection of endogenous H2O2 generation can also be studied by using molecular stimulants known to trigger mitochondrial ROS production, such as Phorbol 12-myristate 13-acetate (PMA).

BL21-DE3 cells = test: Fluorescence imaging of H2S in E. coli expressing aptamer; format: cell-based; settings: upon introduction of H2S (1 mM)
Source text: FIGS. 9A-9D depict detection of H2S in E. coli utilizing AEC-MFHBI. FIG. 9A provides a schematic showing the detection of H2S in E. coli by fluorescence of MFHBI upon cleavage from AEC-MFHBI. FIGS. 9B-9D provide fluorescence images of E. coli expressing aptamer plasmid which have been administered MFHBI (FIG. 9B), AEC-MFHBI (FIG. 9C), and AEC-MFHBI in the presence of H2S (FIG. 9D). Dual channel: MFHBI+RNA (470/550 nm) and FM 4-64FX (510/640 nm). Scale bar: 10 μm.
Imaging of hydrogen sulfide (H2S) has been performed in an analogous manner to that which is described for the detection of H2O2. Specifically, BL21-DE3 cells are transformed with plasmid DNA that contains a T7 promoter and RNABabySpinach or a custom triple baby spinach construct, which allows for the expression of three baby spinach RNA aptamers per transcription cycle. These cells are inoculated with isopropyl β-D-1-thiogalactopyranoside (IPTG) to induce RNA transcription. Subsequent immobilization of the cells on glass dish coated with poly-L-lysine (PLL) and incubation with an imaging buffer (IB) containing the imaging agents and/or controls (i.e., MFHBI, FIG. 9B; or AEC-MFHBI, FIGS. 9C-9D), allowed real time fluorescence imaging of SH2 in cellulo.

RNABabySpinach (51-nt) = test: Experimental binding assay (fluorescence) with RNABabySpinach; settings: Fluorophore (2 μM), RNA (1 μM); for fluorescence intensity with RNABabySpinach: HEPES (pH 8, 20 mM), KCl (100 mM), MgCl2 (10 mM)
Source text: FIGS. 4A-4E depict the effect of chemical modifications of HBI on its binding interactions with RNA. FIG. 4A is a crystal structure of DFHBI-RNASpinach (PDB: 4TS2) focusing on the key H-bonding interactions of DFHBI within the G-G-A binding pocket of RNASpinach. […] FIG. 4C is a Pymol view of docked Oct-HBI-RNASpinach, showing that these interactions are disrupted. FIG. 4D is a Pymol view of a docked methyl carbonate-modified HBI-RNASpinach, showing that these interactions are disrupted. FIG. 4E depicts normalized RFUs of HBI and HBI+RNABabySpinach (gray bars) vs. Oct-HBI and Oct-HBI+RNABabySpinach (blue bars). Fluorophore (2 μM), RNA (1 μM), HEPES (pH 8, 20 mM), KCl (100 mM), and MgCl2 (10 mM).
Ligand docking is a useful tool to screen virtual library of molecules to predict binding affinity and conformation of a ligand within a binding pocket. To gain a theoretical insight into the effect of chemical modifications of HBI on its binding interactions with RNA, a robust docking method named Auto-Dock Vina was used (FIGS. 4A-4D). First, the validity of this method was tested by comparing the proposed HBI-RNASpinach docking (FIG. 4B) with the X-ray crystal structure of the native ligand-RNASpinach [FIG. 4A; the co-crystallized ligand in the reported study is 3,5-difluoro-HBI (DFHBI)]. To attain the initial HBI structure for docking, optimizations were performed in gas phase via density functional theory calculations using B3LYP, 6-31G basis set in Gaussian16 software. […] Next, the phenolic oxygen of HBI was replaced with alkyl carbonate groups.

[2] = free (unbound) ligand; cited from earlier work
[3] = not told; cited from earlier work

CC1=N/C(=C\c2ccc(OCc3ccc(B4OC(C)(C)C(C)(C)O4)cc3)cc2)C(=O)N1C [PBE-HBI]
RFU lower than that of HBI+RNABabySpinach (RNABabySpinach; 0 min (no H2O2 present), 50 μM ligand, 1 μM RNA, HEPES pH 8): 14 fold
RFU as % of RFU of the control (HBI+RNABabySpinach) (RNABabySpinach; H2O2 (100 μM), in 60 min): up to 92%
time for reliable detection of H2O2 (fluorescence intensity doubles) (RNABabySpinach; H2O2 detection): ~1 min
incubation time to achieve 1/2 RFUmax (RNABabySpinach; H2O2 detection: conversion to HBI followed by HBI-aptamer binding): 6.8 (±0.5) min
rise of fluorescence intensity of ligand+RNABabySpinach+H2O2 (RNABabySpinach; after 60 min): ~8 fold
rise of fluorescence intensity of ligand+RNABabySpinach+H2O2 (RNABabySpinach; at 5 min): ~4 fold
fluorescence in E. coli expressing aptamer [1]: rapid increase in fluorescence within one hour

CC1=N/C(=C\c2ccc(OC(=O)OCCN=[N+]=[N-])c(F)c2)C(=O)N1C [AEC-MFHBI]
fluorescence in E. coli expressing aptamer (BL21-DE3 cells): rapid increase in fluorescence is observed within one hour

CCCCCCCCOC(=O)Oc1ccc(/C=C2\N=C(C)N(C)C2=O)cc1 [Oct-HBI]
fluorescence intensity with RNABabySpinach (RNABabySpinach (51-nt)): 21 RFU
decrease in fluorescence intensity compared to HBI-RNABabySpinach (RNABabySpinach (51-nt); HEPES pH 8): ~40 times

CC1=N/C(=C\c2ccc(OCc3ccc(B(O)O)cc3)c(F)c2)C(=O)N1C [PBAB-MFHBI]
fluorescence in E. coli expressing aptamer, control sample ([1]; exogenous H2O2 absent (FIG. 8C)): very small increase in fluorescence
fluorescence in E. coli expressing aptamer [1]: rapid increase in fluorescence within one hour

4-hydroxy-benzylidene imidazolinone [HBI, reference compound]
fluorescence intensity with RNABabySpinach (RNABabySpinach (51-nt)): 846 RFU
growth in fluorescence intensity upon H2O2 addition (RNABabySpinach; H2O2 addition, solution pH increased from 8.0 to 8.4): ~10%
fluorescence quantum yield Φf [2]: ~0.0001
cell permeability [3]: cell permeable
